Test results as given in ChEMBL document CHEMBL3045835, “Comparative study of conventional and microwave-assisted synthesis of some Schiff bases and their potential as antimicrobial agents” (2012).
Converted amounts (≈) assume the structure as drawn.

Columns and labels:
Assay type in all cases: functional
Pseudomonas aeruginosa [1] = test: Antibacterial activity against Pseudomonas aeruginosa MTCC 424 at 500 ug/ml after 18 hr by cup-plate method; conditions: MTCC 424, 18 h, read-out: DIZ
Pseudomonas aeruginosa [2] = test: Antibacterial activity against Pseudomonas aeruginosa MTCC 424 at 200 ug/ml after 18 hr by cup-plate method; conditions: MTCC 424, 18 h, read-out: DIZ
Pseudomonas aeruginosa [3] = test: Antibacterial activity against Pseudomonas aeruginosa MTCC 424 at 100 ug/ml after 18 hr by cup-plate method; conditions: MTCC 424, 18 h, read-out: DIZ
Micrococcus luteus [4] = test: Antibacterial activity against Micrococcus luteus MTCC 1538 at 1500 ug/ml after 18 hr by cup-plate method; conditions: MTCC 1538, 18 h, read-out: DIZ
Micrococcus luteus [5] = test: Antibacterial activity against Micrococcus luteus MTCC 1538 at 1000 ug/ml after 18 hr by cup-plate method; conditions: MTCC 1538, 18 h, read-out: DIZ
Micrococcus luteus [6] = test: Antibacterial activity against Micrococcus luteus MTCC 1538 at 500 ug/ml after 18 hr by cup-plate method; conditions: MTCC 1538, 18 h, read-out: DIZ
Micrococcus luteus [7] = test: Antibacterial activity against Micrococcus luteus MTCC 1538 at 200 ug/ml after 18 hr by cup-plate method; conditions: MTCC 1538, 18 h, read-out: DIZ
Micrococcus luteus [8] = test: Antibacterial activity against Micrococcus luteus MTCC 1538 at 100 ug/ml after 18 hr by cup-plate method; conditions: MTCC 1538, 18 h, read-out: DIZ
Bacillus pumilus [9] = test: Antibacterial activity against Bacillus pumilus MTCC 1456 at 1500 ug/ml after 18 hr by cup-plate method; conditions: MTCC 1456, 18 h, read-out: DIZ
Bacillus pumilus [10] = test: Antibacterial activity against Bacillus pumilus MTCC 1456 at 1000 ug/ml after 18 hr by cup-plate method; conditions: MTCC 1456, 18 h, read-out: DIZ
Bacillus pumilus [11] = test: Antibacterial activity against Bacillus pumilus MTCC 1456 at 500 ug/ml after 18 hr by cup-plate method; conditions: MTCC 1456, 18 h, read-out: DIZ
Bacillus pumilus [12] = test: Antibacterial activity against Bacillus pumilus MTCC 1456 at 200 ug/ml after 18 hr by cup-plate method; conditions: MTCC 1456, 18 h, read-out: DIZ
Bacillus pumilus [13] = test: Antibacterial activity against Bacillus pumilus MTCC 1456 at 100 ug/ml after 18 hr by cup-plate method; conditions: MTCC 1456, 18 h, read-out: DIZ
Bacillus subtilis [14] = test: Antibacterial activity against Bacillus subtilis MTCC 441 at 1000 ug/ml after 18 hr by cup plate method; conditions: MTCC 441, 18 h, read-out: DIZ
Bacillus subtilis [15] = test: Antibacterial activity against Bacillus subtilis MTCC 441 at 1500 ug/ml after 18 hr by cup plate method; conditions: MTCC 441, 18 h, read-out: DIZ
Bacillus subtilis [16] = test: Antibacterial activity against Bacillus subtilis MTCC 441 at 500 ug/ml after 18 hr by cup plate method; conditions: MTCC 441, 18 h, read-out: DIZ
Bacillus subtilis [17] = test: Antibacterial activity against Bacillus subtilis MTCC 441 at 200 ug/ml after 18 hr by cup plate method; conditions: MTCC 441, 18 h, read-out: DIZ
Bacillus subtilis [18] = test: Antibacterial activity against Bacillus subtilis MTCC 441 at 100 ug/ml after 18 hr by cup plate method; conditions: MTCC 441, 18 h, read-out: DIZ
Staphylococcus aureus [19] = test: Antibacterial activity against Staphylococcus aureus MTCC 1430 at 1500 ug/ml after 18 hr by cup-plate method; conditions: MTCC 1430, 18 h, read-out: DIZ
Staphylococcus aureus [20] = test: Antibacterial activity against Staphylococcus aureus MTCC 1430 at 1000 ug/ml after 18 hr by cup-plate method; conditions: MTCC 1430, 18 h, read-out: DIZ
Staphylococcus aureus [21] = test: Antibacterial activity against Staphylococcus aureus MTCC 1430 at 500 ug/ml after 18 hr by cup-plate method; conditions: MTCC 1430, 18 h, read-out: DIZ
Staphylococcus aureus [22] = test: Antibacterial activity against Staphylococcus aureus MTCC 1430 at 200 ug/ml after 18 hr by cup-plate method; conditions: MTCC 1430, 18 h, read-out: DIZ
Staphylococcus aureus [23] = test: Antibacterial activity against Staphylococcus aureus MTCC 1430 at 100 ug/ml after 18 hr by cup-plate method; conditions: MTCC 1430, 18 h, read-out: DIZ
Penicillium chrysogenum = test: Antifungal activity against Penicillium chrysogenum MTCC 161 after 24 hr by broth dilution method; conditions: MTCC 161, 24 h
Aspergillus niger = test: Antifungal activity against Aspergillus niger MTCC 2546 after 24 hr by broth dilution method; conditions: MTCC 2546, 24 h
Escherichia coli = test: Antibacterial activity against Escherichia coli MTCC 1573 after 24 hr by broth dilution method; conditions: MTCC 1573, 24 h
Pseudomonas fluorescens = test: Antibacterial activity against Pseudomonas fluorescens MTCC 2421 after 24 hr by broth dilution method; conditions: MTCC 2421, 24 h

Compound: Cc1cccnc1/N=C/c1cccc2ccccc12
- zone of inhibition at 500 µg/mL (Pseudomonas aeruginosa [1]): 14 mm
- zone of inhibition at 200 µg/mL (Pseudomonas aeruginosa [2]): 13 mm
- zone of inhibition at 100 µg/mL (Pseudomonas aeruginosa [3]): 12 mm
- zone of inhibition at 1500 µg/mL (Micrococcus luteus [4]): 26 mm
- zone of inhibition at 1000 µg/mL (Micrococcus luteus [5]): 24 mm
- zone of inhibition at 500 µg/mL (Micrococcus luteus [6]): 22 mm
- zone of inhibition at 200 µg/mL (Micrococcus luteus [7]): 18 mm
- zone of inhibition at 100 µg/mL (Micrococcus luteus [8]): 16 mm
- zone of inhibition at 1500 µg/mL (Bacillus pumilus [9]): 20 mm
- zone of inhibition at 1000 µg/mL (Bacillus pumilus [10]): 19 mm
- zone of inhibition at 500 µg/mL (Bacillus pumilus [11]): 18 mm
- zone of inhibition at 200 µg/mL (Bacillus pumilus [12]): 16 mm
- zone of inhibition at 100 µg/mL (Bacillus pumilus [13]): 13 mm
- zone of inhibition at 1000 µg/mL (Bacillus subtilis [14]): 18 mm
- zone of inhibition at 1500 µg/mL (Bacillus subtilis [15]): 19 mm
- zone of inhibition at 500 µg/mL (Bacillus subtilis [16]): 16 mm
- zone of inhibition at 200 µg/mL (Bacillus subtilis [17]): 13 mm
- zone of inhibition at 100 µg/mL (Bacillus subtilis [18]): 12 mm
- zone of inhibition at 1500 µg/mL (Staphylococcus aureus [19]): 20 mm
- zone of inhibition at 1000 µg/mL (Staphylococcus aureus [20]): 18 mm
- zone of inhibition at 500 µg/mL (Staphylococcus aureus [21]): 15 mm
- zone of inhibition at 200 µg/mL (Staphylococcus aureus [22]): 13 mm
- zone of inhibition at 100 µg/mL (Staphylococcus aureus [23]): 10 mm
- MIC (Penicillium chrysogenum): 400 mg/L (≈ 1620 µM)
- MIC (Aspergillus niger): 200 mg/L (≈ 812 µM)
- MIC (Escherichia coli): 200 mg/L (≈ 812 µM)
- MIC (Pseudomonas fluorescens): 300 mg/L (≈ 1220 µM)
